Reference: the supplement of paper PMC11061612

Legend:
Assay in all cases: combination Emax (second highest fraction inhibited in the dose matrix, 72 h); higher = more inhibition; extreme values may be limits of the assay
786-0 (Kidney Carcinoma) = system: 786-0 (Kidney Carcinoma)
How it was run: (§1)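 Bliss excess equals the observed combination effect minus the expected value EA + EB − EA·EB, where EA and EB are the effects of each agent alone. Combination Emax is the second-highest inhibition within the matrix. Inhibition was scaled from CellTiter-Glo 2.0 luminescence, with 0 set by vehicle wells and 1 by blank wells, after 72 hours of two-drug dosing of cells plated in 1536-well plates.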

[1] = system: AsPC-1 (Pancreatic Carcinoma)
How it was run: as §1

[2] = system: Calu-6 (Non-Small Cell Lung Carcinoma)
How it was run: as §1

[3] = system: Caov-3 (Ovarian Carcinoma)
How it was run: as §1

ES-2 (Ovarian Carcinoma) = system: ES-2 (Ovarian Carcinoma)
How it was run: as §1

[4] = system: FLO-1 (Esophageal Adenocarcinoma)
How it was run: as §1

[5] = system: HSC-3 (Oral Cavity Carcinoma)
How it was run: as §1

[6] = system: HTC-C3 (Thyroid Gland Carcinoma)
How it was run: as §1

[7] = system: JHH-1 (Hepatocellular Carcinoma)
How it was run: as §1

[8] = system: LAMA-84 (Chronic Myelogenous Leukemia)
How it was run: as §1

[9] = system: LOUCY (T-Lymphoblastic Leukemia)
How it was run: as §1

[10] = system: NCI-H1755 (Lung Adenocarcinoma)
How it was run: as §1

[11] = system: NCI-H810 (Non-Small Cell Lung Carcinoma)
How it was run: as §1

[12] = system: OCI-AML5 (Acute Myeloid Leukemia)
How it was run: as §1

[13] = system: OV-90 (Ovarian Carcinoma)
How it was run: as §1

[14] = system: RPMI-8866 (Chronic Myelogenous Leukemia)
How it was run: as §1

RT4 (Bladder Carcinoma) = system: RT4 (Bladder Carcinoma)
How it was run: as §1

[15] = system: SJRH30 (Rhabdomyosarcoma)
How it was run: as §1

[16] = system: SK-MM-2 (Plasma Cell Myeloma)
How it was run: as §1

[17] = system: SW684 (Other Solid Carcinomas)
How it was run: as §1

Row | SMILES | combination Emax (786-0 (Kidney Carcinoma)) | combination Emax [1] | combination Emax [2] | combination Emax [3] | combination Emax (ES-2 (Ovarian Carcinoma)) | combination Emax [4] | combination Emax [5] | combination Emax [6] | combination Emax [7] | combination Emax [8] | combination Emax [9] | combination Emax [10] | combination Emax [11] | combination Emax [12] | combination Emax [13] | combination Emax [14] | combination Emax (RT4 (Bladder Carcinoma)) | combination Emax [15] | combination Emax [16] | combination Emax [17]
1 | CC1(C)CCC(CN2CCN(c3ccc(C(=O)NS(=O)(=O)c4ccc(NCC5CCOCC5)c([N+](=O)[O-])c4)c(Oc4cnc5[nH]ccc5c4)c3)CC2)=C(c2ccc(Cl)cc2)C1 [Venetoclax] + CCN(CCO)CCCOc1ccc2c(Nc3cc(CC(=O)Nc4cccc(F)c4)[nH]n3)ncnc2c1 [AZD2811] (first compound max 1 µM, 7x7, partner max 1 µM) | 0.159 | 0.154 | 0.346 | 0.892 | 0.233 | 0.359 | 0.436 | 0.121 | 0.268 | 0.594 | 1 | 0.678 | 0.492 | 1 | 0.285 | 0.601 | 0.702 | 0.287 | 1 | 0.275
2 | COc1cccc(OCCCN)c1-c1cc(Nc2cnc(C#N)cn2)n[nH]1 [Prexasertib] + C=CCn1c(=O)c2cnc(Nc3ccc(N4CCN(C)CC4)cc3)nc2n1-c1cccc(C(C)(C)O)n1 [AZD1775] (first compound max 1 µM, partner max 1 µM) | 0.957 | 0.41 | 0.806 | 0.798 | 0.844 | 0.94 | 0.847 | 0.911 | 0.656 | 0.992 | 1 | 0.926 | 0.981 | 1 | 0.628 | 1 | 0.742 | 0.97 | 0.723 | 0.598
3 | COc1cccc(OCCCN)c1-c1cc(Nc2cnc(C#N)cn2)n[nH]1 [Prexasertib] + CN(C)CCCOc1ccc(-c2ccc3ncc4c(c3c2)n(C2CCOCC2)c(=O)n4C)cn1 [AZD0156] (first compound max 1 µM, 7x7, partner max 1 µM) | 0.861 | 0.444 | 0.745 | 0.806 | 0.863 | 0.724 | 0.654 | 0.768 | 0.677 | 0.988 | 1 | 0.936 | 0.877 | 1 | 0.532 | 1 | 0.304 | 0.94 | 0.652 | 0.42
4 | COc1cccc(OCCCN)c1-c1cc(Nc2cnc(C#N)cn2)n[nH]1 [Prexasertib] + C[C@@H]1COCCN1C2=NC(=NC(=C2)C3(CC3)[S@](=N)(=O)C)C4=C5C=CNC5=NC=C4 [AZD6738] (first compound max 1 µM, 7x7, partner max 10 µM) | 0.901 | 0.416 | 0.772 | 0.785 | 0.867 | 0.763 | 0.731 | 0.842 | 0.579 | 0.99 | 1 | 0.912 | 0.9 | 0.988 | 0.548 | 1 | 0.555 | 0.943 | 0.634 | 0.451
5 | CN(CCO)CC[C@H](CSc1ccccc1)Nc1ccc(S(=O)(=O)NC(=O)c2ccc(N3CCC([C@@H](O)c4ccccc4-c4ccc(Cl)cc4)CC3)cc2)cc1S(=O)(=O)C(F)(F)F [AZD4320] + Cn1cnc2c(F)c(Nc3ccc(Br)cc3Cl)c(C(=O)NOCCO)cc21 [Selumetinib] (first compound max 1 µM, 7x7, partner max 3 µM) | 0.307 | 0.759 | 0.837 | 0.803 | 0.466 | 0.453 | 0.701 | 0.707 | 0.8 | 0.99 | 1 | 0.295 | 0.615 | 1 | 0.981 | 0.854 | 0.601 | 0.487 | 1 | 0.609
6 | CN(CCO)CC[C@H](CSc1ccccc1)Nc1ccc(S(=O)(=O)NC(=O)c2ccc(N3CCC([C@@H](O)c4ccccc4-c4ccc(Cl)cc4)CC3)cc2)cc1S(=O)(=O)C(F)(F)F [AZD4320] + C=CCn1c(=O)c2cnc(Nc3ccc(N4CCN(C)CC4)cc3)nc2n1-c1cccc(C(C)(C)O)n1 [AZD1775] (first compound max 1 µM, partner max 1 µM) | 0.715 | 0.728 | 0.928 | 0.979 | 0.722 | 0.977 | 0.707 | 0.742 | 0.918 | 1 | 1 | 0.854 | 0.954 | 1 | 0.933 | 1 | 0.629 | 0.93 | 1 | 0.381
7 | Cc1c2c(nn1C)CSCc1cc(n(C)n1)CSc1cc(c3ccccc3c1)OCCCc1c(C(=O)O)n(C)c3c-2c(Cl)ccc13 [AZD5991] + CC1(C)CCC(CN2CCN(c3ccc(C(=O)NS(=O)(=O)c4ccc(NCC5CCOCC5)c([N+](=O)[O-])c4)c(Oc4cnc5[nH]ccc5c4)c3)CC2)=C(c2ccc(Cl)cc2)C1 [Venetoclax] (first compound max 1 µM, 7x7, partner max 1 µM) | 0.199 | 0.12 | 0.215 | 0.453 | 0.241 | 0.382 | 0.466 | 0.147 | 0.963 | 0.183 | 1 | 0.212 | 0.533 | 1 | 0.246 | 0.438 | 0.959 | 0.588 | 1 | 0.174
8 | CN(CCO)CC[C@H](CSc1ccccc1)Nc1ccc(S(=O)(=O)NC(=O)c2ccc(N3CCC([C@@H](O)c4ccccc4-c4ccc(Cl)cc4)CC3)cc2)cc1S(=O)(=O)C(F)(F)F [AZD4320] + Cc1cc2ncnn2cc1Nc1ncc2c(n1)n(C1CCOCC1)c(=O)n2C [AZD7648] (first compound max 1 µM, 7x7, partner max 10 µM) | 0.138 | 0.566 | 0.59 | 0.551 | 0.501 | 0.347 | 0.151 | 0.342 | 0.382 | 0.752 | 1 | 0.286 | 0.43 | 1 | 0.6 | 0.665 | 0.355 | 0.147 | 1 | 0.184
9 | Cc1c2c(nn1C)CSCc1cc(n(C)n1)CSc1cc(c3ccccc3c1)OCCCc1c(C(=O)O)n(C)c3c-2c(Cl)ccc13 [AZD5991] + CCN(CCO)CCCOc1ccc2c(Nc3cc(CC(=O)Nc4cccc(F)c4)[nH]n3)ncnc2c1 [AZD2811] (first compound max 1 µM, 7x7, partner max 1 µM) | 0.35 | 0.243 | 0.361 | 0.896 | 0.345 | 0.489 | 0.91 | 0.235 | 0.517 | 0.636 | 0.983 | 0.619 | 0.981 | 1 | 0.262 | 0.764 | 0.913 | 0.663 | 0.487 | 0.231
10 | Cc1c2c(nn1C)CSCc1cc(n(C)n1)CSc1cc(c3ccccc3c1)OCCCc1c(C(=O)O)n(C)c3c-2c(Cl)ccc13 [AZD5991] + C[C@@H]1COCCN1C2=NC(=NC(=C2)C3(CC3)[S@](=N)(=O)C)C4=C5C=CNC5=NC=C4 [AZD6738] (first compound max 1 µM, 7x7, partner max 10 µM) | 0.748 | 0.292 | 0.822 | 0.763 | 0.858 | 0.686 | 0.798 | 0.686 | 0.686 | 0.966 | 0.993 | 0.854 | 0.904 | 1 | 0.51 | 0.973 | 0.536 | 0.939 | 0.637 | 0.428
11 | Cc1cc2ncnn2cc1Nc1ncc2c(n1)n(C1CCOCC1)c(=O)n2C [AZD7648] + C[C@@H]1COCCN1C2=NC(=NC(=C2)C3(CC3)[S@](=N)(=O)C)C4=C5C=CNC5=NC=C4 [AZD6738] (first compound max 10 µM, 7x7, partner max 10 µM) | 0.694 | 0.369 | 0.741 | 0.773 | 0.743 | 0.668 | 0.405 | 0.802 | 0.476 | 0.947 | 1 | 0.883 | 0.697 | 0.882 | 0.489 | 0.969 | 0.488 | 0.801 | 0.475 | 0.383
12 | CC1(C)CCC(CN2CCN(c3ccc(C(=O)NS(=O)(=O)c4ccc(NCC5CCOCC5)c([N+](=O)[O-])c4)c(Oc4cnc5[nH]ccc5c4)c3)CC2)=C(c2ccc(Cl)cc2)C1 [Venetoclax] + Cn1cnc2c(F)c(Nc3ccc(Br)cc3Cl)c(C(=O)NOCCO)cc21 [Selumetinib] (first compound max 1 µM, 7x7, partner max 3 µM) | 0.16 | 0.403 | 0.431 | 0.603 | 0.366 | 0.319 | 0.365 | 0.508 | 0.272 | 0.707 | 1 | 0.636 | 0.0631 | 1 | 0.571 | 0.293 | 0.304 | 0.1 | 1 | 0.191
